Measurements reported in patent US8114442B2, “Transdermal pharmaceutical delivery compositions” (Queen Mary & Westfield College, priority 2008, dated 2012).

Assays:
[1] = healthy 70 kg-adult; cited from earlier work
[2] = Pilot studies of local anaesthesia by pin-prick and thermal sensitivity testing; format: in vivo, human; details: applied directly to the skin without NO-generating gel; within 20 minutes
Description: The anaesthetic used in these initial studies was xylocalne as it was readily available in a pharmaceutical form for mixing.

Compound	generally accepted safe dosage for topical anaesthesia [1] [mg]	level of anaesthesia [2]
COC(=O)[C@H]1[C@@H](OC(=O)c2ccccc2)C[C@@H]2CC[C@H]1N2C [cocaine]	200	
CCN(CC)CC(=O)Nc1c(C)cccc1C [lidocaine]	750	
CCCCNc1ccc(C(=O)OCCN(C)C)cc1 [tetracaine]	50	
CCN(CC)CC(=O)Nc1c(C)cccc1C [xylocalne]		failed to produce any discernible level of anaesthesia
